The text below walks through data of article PMC8194939, “Investigation on the characteristics and mechanisms of ACE inhibitory peptides by a thorough analysis of all 8000 tripeptides via binding free energy calculation” (Food Science & Nutrition, 2021).

Where a SMILES comes first, the peptide text is derived from it.

What is called IC50 is the midpoint of a concentration-inhibition curve. Read a low IC50 as greater potency.

In the assay the target is T1, ACE from rabbit lung (Oryctolagus cuniculus, UniProt P12822).
T1 sequence (P12822 34-1310): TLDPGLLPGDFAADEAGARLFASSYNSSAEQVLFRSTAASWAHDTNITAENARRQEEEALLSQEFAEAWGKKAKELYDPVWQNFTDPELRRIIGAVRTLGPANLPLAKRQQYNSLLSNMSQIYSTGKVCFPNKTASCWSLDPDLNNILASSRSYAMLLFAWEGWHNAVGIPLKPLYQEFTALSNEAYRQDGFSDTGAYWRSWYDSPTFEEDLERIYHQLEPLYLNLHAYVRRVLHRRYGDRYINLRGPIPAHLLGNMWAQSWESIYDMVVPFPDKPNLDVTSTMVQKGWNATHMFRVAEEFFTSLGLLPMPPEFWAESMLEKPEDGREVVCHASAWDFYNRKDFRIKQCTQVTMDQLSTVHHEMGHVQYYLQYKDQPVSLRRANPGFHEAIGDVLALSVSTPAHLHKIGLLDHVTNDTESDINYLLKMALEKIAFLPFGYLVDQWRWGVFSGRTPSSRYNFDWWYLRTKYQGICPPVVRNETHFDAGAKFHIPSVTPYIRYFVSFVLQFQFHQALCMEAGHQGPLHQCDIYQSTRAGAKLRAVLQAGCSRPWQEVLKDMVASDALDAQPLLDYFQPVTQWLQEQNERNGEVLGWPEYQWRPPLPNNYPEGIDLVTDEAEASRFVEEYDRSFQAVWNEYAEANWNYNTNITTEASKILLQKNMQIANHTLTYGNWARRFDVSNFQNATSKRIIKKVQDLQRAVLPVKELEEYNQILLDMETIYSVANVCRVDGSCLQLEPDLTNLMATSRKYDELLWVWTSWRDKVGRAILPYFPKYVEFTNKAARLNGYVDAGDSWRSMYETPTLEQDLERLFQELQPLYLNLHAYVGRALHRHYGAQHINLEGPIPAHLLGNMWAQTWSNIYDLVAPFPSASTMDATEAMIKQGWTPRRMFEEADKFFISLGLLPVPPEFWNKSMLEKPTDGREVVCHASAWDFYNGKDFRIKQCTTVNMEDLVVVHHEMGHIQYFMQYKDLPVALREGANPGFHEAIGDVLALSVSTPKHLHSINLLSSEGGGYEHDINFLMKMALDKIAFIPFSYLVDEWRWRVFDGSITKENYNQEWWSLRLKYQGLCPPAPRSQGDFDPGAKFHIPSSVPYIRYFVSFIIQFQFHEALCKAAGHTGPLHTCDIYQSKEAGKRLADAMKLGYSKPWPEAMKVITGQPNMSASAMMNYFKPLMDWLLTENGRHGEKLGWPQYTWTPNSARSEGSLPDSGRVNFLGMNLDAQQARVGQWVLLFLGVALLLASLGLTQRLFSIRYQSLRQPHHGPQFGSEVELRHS
Kind of assay: Assay of ACE inhibitory activity (HHL substrate, RP-HPLC of hippuric acid).
Protocol: ACE from rabbit lung and hippuryl‐histidyl‐leucine (HHL) were sourced from Sigma Chemical Co. (St. Louis).
Briefly, 20 μL of inhibitory peptides at different concentrations and 20 μL of 5 mM HHL solution were preincubated at 37°C for 5 min in 90 μL of buffer A (50 mM HEPES, 300 mM NaCl, pH 8.3). Next, 20 μL of ACE solution (0.04 U/mL) was added to trigger the reaction. After incubation at 37°C for 1 hr, the reaction was terminated by adding 50 μL of 1 M HCl. Next, 10 μL of the mixture was separated through RP‐HPLC (e2679, Waters) using an XBridge C18 column (4.6 mm × 150 mm, 5 μm, Waters). […] Hippuric acid was monitored at 228 nm. Triplicate tests were performed for each sample. […] For comparative purposes, the IC50 value of captopril was obtained using this methodology.
Consider `N[C@@H](CC(=O)O)C(=O)NCC(=O)NCC(=O)O` [DGG] (H-Asp-Gly-Gly-OH), for which the IC50 is > 5000 µM. With `NCC(=O)NCC(=O)NCC(=O)O` [GGG] (H-Gly-Gly-Gly-OH) the figure was > 5000 µM. The compound `NCCCC[C@H](N)C(=O)N[C@@H](Cc1ccc(O)cc1)C(=O)N[C@@H](Cc1ccc(O)cc1)C(=O)O` [KYY] (H-Lys-Tyr-Tyr-OH) registered an IC50 of 20.5 ± 4.05 µM. Compound `NC(=O)CC[C@H](NC(=O)[C@@H](N)Cc1c[nH]c2ccccc12)C(=O)N[C@@H](Cc1c[nH]c2ccccc12)C(=O)O` [WQW] (H-Trp-Gln-Trp-OH) yielded an IC50 of 11.8 ± 1.79 µM. This IC50 is about 1.7-fold lower than that of the compound before. With `N=C(N)NCCC[C@H](NC(=O)[C@@H](N)Cc1c[nH]c2ccccc12)C(=O)N[C@@H](Cc1ccccc1)C(=O)O` [WRF] (H-Trp-Arg-Phe-OH) the figure was 21.8 ± 2.5 µM. Next, `N=C(N)NCCC[C@H](NC(=O)[C@@H](N)Cc1c[nH]c2ccccc12)C(=O)N[C@@H](Cc1ccc(O)cc1)C(=O)O` [WRY] (H-Trp-Arg-Tyr-OH): 5.86 ± 0.73 µM; `N[C@@H](Cc1c[nH]c2ccccc12)C(=O)N[C@@H](Cc1c[nH]c2ccccc12)C(=O)N[C@@H](Cc1c[nH]c2ccccc12)C(=O)O` [WWW] (H-Trp-Trp-Trp-OH): 7.3 ± 2.11 µM.
